Data: article PMC4432228, “Tight regulation of the unfolded protein sensor Ire1 by its intramolecularly antagonizing subdomain” (Journal of Cell Science, 2015)

Test system: MBP–CSSR (core stress-sensing region of yeast Ire1)
Assay: In vitro competition assay for peptide binding to the CSSR (fluorescence anisotropy of ΔEspP–FAM)
Parameters: species or system Saccharomyces cerevisiae
Settings: Fig. 6C
Procedure: Fig. 6. Two-hybrid and in vitro interaction of the CSSR with various peptides. (A,B) A yeast two-hybrid analysis was performed using the CSSR and its mutants as prey. The Subregion I 60-amino-acid portion (Sub-I), Segment 4 (Seg4; six tandem repeat), GGGSS (12 tandem repeat), Segments 1–3 (Segs1–3; amino acids 32–61 of yeast Ire1; two tandem repeat), Segments 4–6 (Segs4–6; amino acids 62–91 of yeast Ire1; two tandem repeat), the NUCR of human or mouse PERK (hPERK or mPERK), the Top2 IDR (Top2; two tandem repeat) and the San1 IDR (San1) were used as bait. Tester cell cultures were serially diluted tenfold, spotted on agar plates, incubated for 2–4 days and photographed. WT, wild type. (C) A fluorescently labeled peptide DEspP–FAM (10 µM final concentration) was mixed with MBP–CSSR (5 µM final concentration) and a competitor peptide [Segment (Seg) 2–6] and measured for fluorescence anisotropy. The resulting values from triplicate assays (mean±s.d.) are normalized to that for the no competitor peptide condition.
Next, we performed an in vitro competition assay to monitor the affinity of the Subregion I segments for the CSSR. A recombinant CSSR protein tagged with the maltose-binding protein (MBP–CSSR) was expressed in Escherichia coli and purified with amylose resin ([Kimata et al., 2007]). […]

Segment 4: Untagged competitor peptide NH2-KKKA-[10 amino acids of Segment 4 of yeast Ire1 Subregion I]-AAKKKK-COOH (H-KKKAIPAPRTTEGLAAKKKK-OH)
Affinity of capture by the CSSR relative to other Subregion I segments (in vitro competition analysis): higher affinity than for other segments | Reduction of ΔEspP–FAM fluorescence anisotropy by competitor peptide (reduced association between ΔEspP–FAM and MBP–CSSR) (ΔEspP–FAM 10 µM, MBP–CSSR 5 µM, elution buffer A (50 mM HEPES pH 8.0), 30 min incubation, 25°C, triplicate assays, normalized to no competitor): more effectively than the other segments did
